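Dose response: 5 concentrations. Exposure: 48 h. Format: 96-well plates. Endpoint: linear interpolation; highest concentration if not reached. TGI marks complete inhibition of growth.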
Key:
Assay in all cases: NCI tumour cell line growth inhibition, 48 h
SNB-78 CNS = system: SNB-78 CNS
SW-620 colon = system: SW-620 colon
TK-10 renal = system: TK-10 renal
SNB-75 CNS = system: SNB-75 CNS
LOX IMVI melanoma = system: LOX IMVI melanoma
SK-MEL-28 melanoma = system: SK-MEL-28 melanoma
LXFL 529 NSCLC = system: LXFL 529 NSCLC
DMS 114 small cell lung = system: DMS 114 small cell lung
HCT-15 colon = system: HCT-15 colon
HOP-62 NSCLC = system: HOP-62 NSCLC
786-0 renal = system: 786-0 renal
CAKI-1 renal = system: CAKI-1 renal
DLD-1 colon = system: DLD-1 colon
HOP-18 NSCLC = system: HOP-18 NSCLC
CCRF-CEM leukemia = system: CCRF-CEM leukemia
IGROV1 ovarian = system: IGROV1 ovarian
M14 melanoma = system: M14 melanoma
SK-OV-3 ovarian = system: SK-OV-3 ovarian
M19-MEL melanoma = system: M19-MEL melanoma
EKVX NSCLC = system: EKVX NSCLC
KM12 colon = system: KM12 colon
RPMI-8226 leukemia = system: RPMI-8226 leukemia
UACC-257 melanoma = system: UACC-257 melanoma
SNB-19 CNS = system: SNB-19 CNS
SF-268 CNS = system: SF-268 CNS
HCT-116 colon = system: HCT-116 colon
HT29 colon = system: HT29 colon
RXF 393 renal = system: RXF 393 renal
OVCAR-8 ovarian = system: OVCAR-8 ovarian
SR leukemia = system: SR leukemia
HL-60(TB) leukemia = system: HL-60(TB) leukemia
SF-539 CNS = system: SF-539 CNS
UO-31 renal = system: UO-31 renal
MOLT-4 leukemia = system: MOLT-4 leukemia
XF 498 CNS = system: XF 498 CNS
OVCAR-4 ovarian = system: OVCAR-4 ovarian
HCC-2998 colon = system: HCC-2998 colon
NCI-H23 lung = system: NCI-H23 lung
RXF-631 renal = system: RXF-631 renal
A498 renal = system: A498 renal
DMS 273 small cell lung = system: DMS 273 small cell lung
ACHN renal = system: ACHN renal
A549 NSCLC = system: A549 NSCLC
SK-MEL-2 melanoma = system: SK-MEL-2 melanoma
OVCAR-5 ovarian = system: OVCAR-5 ovarian
U251 CNS = system: U251 CNS
SN12C renal = system: SN12C renal
KM20L2 colon = system: KM20L2 colon
SK-MEL-5 melanoma = system: SK-MEL-5 melanoma
K-562 leukemia = system: K-562 leukemia
MALME-3M melanoma = system: MALME-3M melanoma
SF-295 CNS = system: SF-295 CNS
NCI-H460 lung = system: NCI-H460 lung
UACC-62 melanoma = system: UACC-62 melanoma

Which TGI (SNB-78 CNS) does the source give for `CC(C)(C)c1cc(Cc2ccc([N+](C)(C)C)cc2)c(O)c(C(C)(C)C)c1` here?
The TGI was 31.3 µM.

And the TGI (SW-620 colon)?
Its TGI is 59.2 µM.

And the TGI (TK-10 renal)?
The TGI was 78.4 µM.

What about the TGI (SNB-75 CNS) of the same molecule?
Its TGI is 22.1 µM.

What about the TGI (LOX IMVI melanoma) of the same molecule?
The TGI was 30.6 µM.

And the TGI (SK-MEL-28 melanoma)?
The TGI was 25 µM.

What about the TGI (LXFL 529 NSCLC) of the same molecule?
Its TGI is 27.1 µM.

And the TGI (DMS 114 small cell lung)?
The TGI was 20.2 µM.

And the TGI (HCT-15 colon)?
Its TGI is > 100 µM.

And the TGI (HOP-62 NSCLC)?
Its TGI is 33.5 µM.

And the TGI (786-0 renal)?
Its TGI is 57.7 µM.

And the TGI (CAKI-1 renal)?
The TGI was > 100 µM.

And the TGI (DLD-1 colon)?
Its TGI is > 100 µM.

What about the TGI (HOP-18 NSCLC) of the same molecule?
The TGI was 47.3 µM.

And the TGI (CCRF-CEM leukemia)?
Its TGI is 29.1 µM.

What about the TGI (IGROV1 ovarian) of the same molecule?
The TGI was 28.1 µM.

What about the TGI (M14 melanoma) of the same molecule?
The TGI was 40.9 µM.

And the TGI (SK-OV-3 ovarian)?
Its TGI is 95.1 µM.

And the TGI (M19-MEL melanoma)?
Its TGI is 26.6 µM.

And the TGI (EKVX NSCLC)?
Its TGI is > 100 µM.

What about the TGI (KM12 colon) of the same molecule?
The TGI was 29.6 µM.

What about the TGI (RPMI-8226 leukemia) of the same molecule?
The TGI was 31.9 µM.

What about the TGI (UACC-257 melanoma) of the same molecule?
The TGI was 31.7 µM.

And the TGI (SNB-19 CNS)?
Its TGI is 25.9 µM.

What about the TGI (SF-268 CNS) of the same molecule?
The TGI was 28.5 µM.

What about the TGI (HCT-116 colon) of the same molecule?
Its TGI is 31.5 µM.

And the TGI (HT29 colon)?
The TGI was 32.7 µM.

And the TGI (RXF 393 renal)?
The TGI was 38.4 µM.

What about the TGI (OVCAR-8 ovarian) of the same molecule?
The TGI was 35.9 µM.

And the TGI (SR leukemia)?
Its TGI is 29.8 µM.

And the TGI (HL-60(TB) leukemia)?
Its TGI is 8.27 µM.

What about the TGI (SF-539 CNS) of the same molecule?
Its TGI is 30.5 µM.

And the TGI (UO-31 renal)?
Its TGI is > 100 µM.

What about the TGI (MOLT-4 leukemia) of the same molecule?
The TGI was 26.1 µM.

What about the TGI (XF 498 CNS) of the same molecule?
The TGI was 25.9 µM.

What about the TGI (OVCAR-4 ovarian) of the same molecule?
The TGI was > 100 µM.

And the TGI (HCC-2998 colon)?
The TGI was 29.9 µM.

What about the TGI (NCI-H23 lung) of the same molecule?
Its TGI is 36.1 µM.

And the TGI (RXF-631 renal)?
Its TGI is > 100 µM.

And the TGI (A498 renal)?
The TGI was > 100 µM.

What about the TGI (DMS 273 small cell lung) of the same molecule?
Its TGI is 22.2 µM.

And the TGI (ACHN renal)?
The TGI was > 100 µM.

What about the TGI (A549 NSCLC) of the same molecule?
Its TGI is > 100 µM.

What about the TGI (SK-MEL-2 melanoma) of the same molecule?
Its TGI is 30.2 µM.

What about the TGI (OVCAR-5 ovarian) of the same molecule?
Its TGI is 59.7 µM.

And the TGI (U251 CNS)?
Its TGI is 25.4 µM.

What about the TGI (SN12C renal) of the same molecule?
Its TGI is 28.7 µM.

What about the TGI (KM20L2 colon) of the same molecule?
Its TGI is 74.8 µM.

And the TGI (SK-MEL-5 melanoma)?
Its TGI is 22.9 µM.

And the TGI (K-562 leukemia)?
Its TGI is 28.1 µM.

And the TGI (MALME-3M melanoma)?
The TGI was 34.2 µM.

What about the TGI (SF-295 CNS) of the same molecule?
Its TGI is 67.5 µM.

What about the TGI (NCI-H460 lung) of the same molecule?
The TGI was 37.9 µM.

And the TGI (UACC-62 melanoma)?
The TGI was 27.9 µM.

Source: PubChem BioAssay (NCI)
